{"source": "patent US5498632A", "about": "“Esters of acyl carnitines with long-chain aliphatic alcohols and pharmaceutical compositions containing same having antibacterial activity” (Sigma-Tau Industrie Farmaceutiche Riunite S.p.A., priority 1992, dated 1996)", "key": {"[1]": {"test": "Assessment of behaviour and mortality in mice (Irwin's method)", "design": "species or system mouse (male Crl:(CD-1)(ICR)BR)", "details": "mouse, in vivo; oral, dose 1000, 4 animals/dose", "experimental": "(§1) The assessment of normal behaviour in mice was carried out following S. Irwin's method (Psychopharmacologia, 13, 222 [1968]). This method allows alterations in some behavioural, neurophysiologic and neurovegetative parameters to be detected, which are directly observable by the researcher. The study was conducted using male Crl:(CD-1)(ICR)BR mice (Charles River--Italy) weighing 22-25 g, following oral administration of the compounds suspended in carboxymethylcellulose (0.5% by weight in H2 O) to groups of 4 animals/dose.\n(§2) The animals were continously kept under observation for five hours following treatment and twice a day in the subsequent five days. Mortality was also observed during the overall test period."}, "[2]": {"system": "mice", "test": "Assessment of behaviour and mortality in mice (Irwin's method)", "design": "species or system mouse (male Crl:(CD-1)(ICR)BR)", "details": "mouse, in vivo, po", "experimental": "as §1, §2"}, "[3]": {"system": "Enterobacter aerogenes (UM)", "test": "MIC in broth, Gram- strains", "format": "cell-based", "details": "Klebsiella aerogenes, 18 h, read-out: Minimal Inhibitory Concentration (MIC)", "procedure,_shortened": "(§3)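 MIC read after 18 h incubation at 37 °C in humidified air. Test used two-fold serial dilutions in Mueller-Hinton broth, bacteria at final 5.0×10^4 CFU/ml from a 0.5 McFarland-matched overnight culture.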"}, "[4]": {"system": "Escherichia coli (76 F)", "test": "MIC in broth, Gram- strains", "format": "cell-based", "details": "18 h, E. coli (76 F), read-out: Minimal Inhibitory Concentration (MIC)", "procedure,_shortened": "as §3"}, "[5]": {"system": "Escherichia coli (92 F)", "test": "MIC in broth, Gram- strains", "format": "cell-based", "details": "18 h, E. coli (92 F), read-out: Minimal Inhibitory Concentration (MIC)", "procedure,_shortened": "as §3"}, "[6]": {"system": "Escherichia coli (R 57B)", "test": "MIC in broth, Gram- strains", "format": "cell-based", "details": "18 h, E. coli (R 57B), read-out: Minimal Inhibitory Concentration (MIC)", "procedure,_shortened": "as §3"}, "[7]": {"system": "Klebsiella aerogenes (SH 1082)", "test": "MIC in broth, Gram- strains", "format": "cell-based", "details": "18 h, read-out: Minimal Inhibitory Concentration (MIC)", "procedure,_shortened": "as §3"}, "[8]": {"system": "Klebsiella oxytoca (552)", "test": "MIC in broth, Gram- strains", "format": "cell-based", "details": "18 h, read-out: Minimal Inhibitory Concentration (MIC)", "procedure,_shortened": "as §3"}, "[9]": {"system": "Klebsiella pneumoniae (7823)", "test": "MIC in broth, Gram- strains", "format": "cell-based", "details": "18 h, read-out: Minimal Inhibitory Concentration (MIC)", "procedure,_shortened": "as §3"}, "[10]": {"system": "Proteus mirabilis (32)", "test": "MIC in broth, Gram- strains", "format": "cell-based", "details": "18 h, read-out: Minimal Inhibitory Concentration (MIC)", "procedure,_shortened": "as §3"}, "[11]": {"system": "Proteus morganii (D.S.)", "test": "MIC in broth, Gram- strains", "format": "cell-based", "details": "Morganella morganii, 18 h, read-out: Minimal Inhibitory Concentration (MIC)", "procedure,_shortened": "as §3"}, "[12]": {"system": "Proteus vulgaris (UM)", "test": "MIC in broth, Gram- strains", "format": "cell-based", "details": "18 h, read-out: Minimal Inhibitory Concentration (MIC)", "procedure,_shortened": "as §3"}, "[13]": {"system": "Pseudomonas aeruginosa (10 E)", "test": "MIC in broth, Gram- strains", "format": "cell-based", "details": "18 h, read-out: Minimal Inhibitory Concentration (MIC)", "procedure,_shortened": "as §3"}, "[14]": {"system": "Pseudomonas aeruginosa (3 E)", "test": "MIC in broth, Gram- strains", "format": "cell-based", "details": "18 h, read-out: Minimal Inhibitory Concentration (MIC)", "procedure,_shortened": "as §3"}, "[15]": {"system": "Salmonella typhi (J)", "test": "MIC in broth, Gram- strains", "format": "cell-based", "details": "Salmonella enterica, 18 h, read-out: Minimal Inhibitory Concentration (MIC)", "procedure,_shortened": "as §3"}, "[16]": {"system": "Salmonella typhimurium (D.S.)", "test": "MIC in broth, Gram- strains", "format": "cell-based", "details": "Salmonella enterica, 18 h, read-out: Minimal Inhibitory Concentration (MIC)", "procedure,_shortened": "as §3"}, "[17]": {"system": "Serratia marcescens (A/1)", "test": "MIC in broth, Gram- strains", "format": "cell-based", "details": "18 h, read-out: Minimal Inhibitory Concentration (MIC)", "procedure,_shortened": "as §3"}, "[18]": {"system": "Campylobacter coli LI 048", "test": "MIC in agar (agar dilution)", "format": "cell-based", "experimental": "(§4) In this experiment the activity of ST 722 and ST 712 against Campylobacter and Helicobacter was investigated.\n(§5) Campylobacter fetus ATCC 27374, Campylobacter coli LI 048, Campylobacter jejuni 84-ISS, and Helicobacter pylori NCTC 11637.\n(§6) The culture medium was Columbia agar base supplemented with 7% (V/V) defribinated horse blood (DHB) for Campylobacter strains, and the same medium additioned with Vitox (Oxoid) for Helicobacter strain.\n(§7) The Campylobacter and Helicobacter strains, preserved at -80° C. in DHB containing 10% (V/V) glycerol, were thawed and grown, in their respective culture medium, in culture flasks, which were incubated for 48 hours at 37° C. in a 10% CO2 atmosphere. After this first growth cycle, the bacteria were allowed to go through a second growth cycle in the same conditions as above.\n(§8) The bacterial \"patina\" was then harvested by resuspension in 4-5 ml of Mueller-Hinton broth, the turbidity of which was then assessed according to Mc Farland's criteria (BRAY W. E., Clinical Laboratory Methods, 5th Ed. C. V. MOSBY, St. Louis, Mo. 1957).\n(§9) The Helicobacter suspension was adjusted to an approximate concentration of 1.0×10^9 and 1.0×10^8 organisms/ml, while the Campylobacter suspension was adjusted to 1.0×10^7 and 1.0×10^6 organisms/ml.\n(§10) With a Steers-type multipoint inoculator (STEERS E., FOLTZ E. L., GRAVES S., RIDEN J., 1959. Inocula-replicating apparatus for routine testing of antibacterial susceptibility to antibiotics. Antibiot. Chemoter. 9: 307-311) 1-μl volumes of the above standardized suspensions were spot-transferred into the wells of a 96-well microtiter plate, which had previously been filled with 0.2 ml/well of Mueller-Hinton agar 5% DHB, containing the test substances at different concentrations.\n(§11) The plates was then incubated for 48/72 hours at 37° C. in a 10% CO2 atmosphere."}, "[19]": {"system": "Campylobacter fetus ATCC 27374", "test": "MIC in agar (agar dilution)", "format": "cell-based", "experimental": "as §4, §5, §6, §7, §8, §9, §10, §11"}, "[20]": {"system": "Campylobacter jejuni 84-ISS", "test": "MIC in agar (agar dilution)", "format": "cell-based", "experimental": "as §4, §5, §6, §7, §8, §9, §10, §11"}}}
{"compound": "CCCCCCCCCCCOC(=O)CC(C[N+](C)(C)C)OC(=O)CC(C)C", "note": "[ST 722, Isovaleryl-L-Carnitine Undecyl Ester Chloride]", "values": [{"measurement": "mortality at 120 h", "setting": "[1]", "result": 0, "unit": "%"}, {"measurement": "Symptoms", "setting": "[2]", "result": "salivation, diarrhoea"}, {"measurement": "MIC", "setting": "[3]", "result": 25, "unit": "µg/mL"}, {"measurement": "MIC", "setting": "[4]", "result": 25, "unit": "µg/mL"}, {"measurement": "MIC", "setting": "[5]", "result": 25, "unit": "µg/mL"}, {"measurement": "MIC", "setting": "[6]", "result": 25, "unit": "µg/mL"}, {"measurement": "MIC", "setting": "[7]", "result": 25, "unit": "µg/mL"}, {"measurement": "MIC", "setting": "[8]", "result": 12.5, "unit": "µg/mL"}, {"measurement": "MIC", "setting": "[9]", "result": 12.5, "unit": "µg/mL"}, {"measurement": "MIC", "setting": "[10]", "result": "> 100", "unit": "µg/mL"}, {"measurement": "MIC", "setting": "[11]", "result": 100, "unit": "µg/mL"}, {"measurement": "MIC", "setting": "[12]", "result": 50, "unit": "µg/mL"}, {"measurement": "MIC", "setting": "[13]", "result": 50, "unit": "µg/mL"}, {"measurement": "MIC", "setting": "[14]", "result": 50, "unit": "µg/mL"}, {"measurement": "MIC", "setting": "[15]", "result": 25, "unit": "µg/mL"}, {"measurement": "MIC", "setting": "[16]", "result": 25, "unit": "µg/mL"}, {"measurement": "MIC", "setting": "[17]", "result": 50, "unit": "µg/mL"}, {"measurement": "MIC", "setting": "[18]; Campylobacter coli, LI048, I = inoculum of 1.0 × 10^3", "result": 3.12, "unit": "µg/mL"}, {"measurement": "MIC in agar", "setting": "[18]; II = inoculum of 1.0 × 10^4", "result": 3.12, "unit": "µg/mL"}, {"measurement": "MIC", "setting": "[19]; Campylobacter fetus, ATCC27374, I = inoculum of 1.0 × 10^3", "result": 100, "unit": "µg/mL"}, {"measurement": "MIC in agar", "setting": "[19]; II = inoculum of 1.0 × 10^4", "result": 100, "unit": "µg/mL"}, {"measurement": "MIC", "setting": "[20]; I = inoculum of 1.0 × 10^3", "result": 12.5, "unit": "µg/mL"}, {"measurement": "MIC", "setting": "[20]; II = inoculum of 1.0 × 10^4", "result": 12.5, "unit": "µg/mL"}]}
